Calls of active or inactive are those of the source. Rule as the data show it, for most assays here: actives have a measured EC50 and inactives only a lower limit.

One may read the AC50 as the concentration at which the activity in the assay is half-maximal. By IC50 is commonly meant the point on the concentration scale where inhibition reaches its midpoint.

Chain of Luciferin 4-monooxygenase (P08659 whole entry): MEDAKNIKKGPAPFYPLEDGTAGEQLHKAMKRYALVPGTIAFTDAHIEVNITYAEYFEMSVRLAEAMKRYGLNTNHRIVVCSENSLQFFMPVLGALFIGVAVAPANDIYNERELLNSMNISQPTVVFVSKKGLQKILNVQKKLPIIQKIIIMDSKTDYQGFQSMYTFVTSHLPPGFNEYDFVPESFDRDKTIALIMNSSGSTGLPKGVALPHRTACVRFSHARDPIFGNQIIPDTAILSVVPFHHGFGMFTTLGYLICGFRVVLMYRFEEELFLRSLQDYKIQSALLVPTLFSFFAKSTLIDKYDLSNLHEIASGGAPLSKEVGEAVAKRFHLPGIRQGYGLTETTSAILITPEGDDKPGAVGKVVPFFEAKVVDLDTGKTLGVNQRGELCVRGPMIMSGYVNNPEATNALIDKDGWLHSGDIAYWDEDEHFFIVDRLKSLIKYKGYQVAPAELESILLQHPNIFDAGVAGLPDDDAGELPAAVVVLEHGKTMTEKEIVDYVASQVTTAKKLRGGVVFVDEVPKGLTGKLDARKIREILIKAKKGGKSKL

The first test deals with T1, RNA-binding protein pos-1 (Caenorhabditis elegans, UniProt G5EF15).
T1 sequence (G5EF15 whole entry): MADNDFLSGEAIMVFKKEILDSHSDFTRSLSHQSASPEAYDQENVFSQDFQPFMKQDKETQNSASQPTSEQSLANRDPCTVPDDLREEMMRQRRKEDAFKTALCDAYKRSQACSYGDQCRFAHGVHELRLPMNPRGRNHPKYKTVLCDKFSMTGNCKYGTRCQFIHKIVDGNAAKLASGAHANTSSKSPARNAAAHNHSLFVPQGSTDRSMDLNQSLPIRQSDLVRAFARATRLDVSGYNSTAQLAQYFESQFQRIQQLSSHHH
Put plainly: disruptors of C. elegans POS-1 RNA interaction – biochemical, fluorescence polarization, dose response (AID 1964).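 Also: purified POS-1 fused to maltose binding protein made in E. coli; potency of compounds blocking POS-1 binding to fluorescent RNA.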
Settings: not given
For orientation: In fluorescence polarisation assays a small probe gives low polarisation when free and higher when bound to something large.
Take `COc1ccccc1Nc1nc2nonc2nc1N1CCCCC1C` (stereo not drawn): the EC50 was 95.5 µM (active).
Same read-out and setting: the result for `CC(C)(C)OC(=O)NCCCCC1=CC2=CC(=O)C(C)(OC(=O)c3ccco3)C(=O)C2=CO1` (stereo not drawn) reads 35.5 µM (active).

The next test relates to INS1. Description: INS-1E survival protection against cytokine death – cell-based, luminescence, retest, dose response (AID 449756).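 Also: cell death triggered by IL-1 beta plus TNF-alpha plus IFN-gamma mixture; protective hits raise ATP signal compared with cytokine alone wells.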 Format: functional. The note with it: Rattus norvegicus.
Turning to `C=CCc1cccc(/C=N/NC(=O)c2ccc3[nH]cnc3c2)c1O`, the AC50 is 1.61 µM (active).

In a further test the target is T2, Rac GTPase-activating protein 1 (Homo sapiens, UniProt Q9H0H5).
T2 sequence (Q9H0H5 whole entry): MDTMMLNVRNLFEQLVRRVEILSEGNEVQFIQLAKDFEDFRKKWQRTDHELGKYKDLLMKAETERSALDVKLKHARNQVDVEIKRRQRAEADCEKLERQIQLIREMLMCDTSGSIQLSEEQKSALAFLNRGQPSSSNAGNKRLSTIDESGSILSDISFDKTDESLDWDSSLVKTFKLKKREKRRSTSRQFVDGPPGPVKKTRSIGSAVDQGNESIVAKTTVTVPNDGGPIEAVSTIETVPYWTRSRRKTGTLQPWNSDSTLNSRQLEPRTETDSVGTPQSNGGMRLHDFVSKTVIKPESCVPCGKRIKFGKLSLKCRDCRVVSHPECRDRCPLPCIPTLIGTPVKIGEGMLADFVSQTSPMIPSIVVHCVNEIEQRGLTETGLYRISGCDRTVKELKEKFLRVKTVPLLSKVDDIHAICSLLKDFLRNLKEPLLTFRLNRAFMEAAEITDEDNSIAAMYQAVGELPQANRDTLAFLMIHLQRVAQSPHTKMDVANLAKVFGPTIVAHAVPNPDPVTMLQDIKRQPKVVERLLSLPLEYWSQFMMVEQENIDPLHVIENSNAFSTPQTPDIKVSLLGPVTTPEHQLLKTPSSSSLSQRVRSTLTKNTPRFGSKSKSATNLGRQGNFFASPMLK
Description: blockers of MgcRacGAP-driven Rac1 GTP hydrolysis – biochemical, ADP Hunter fluorescence, primary and confirmatory, confirmation (AID 624330). Format: functional.
Settings: not given
With `O=C(NC(=S)Nc1cccc2c(O)cccc12)c1ccco1`, the IC50 is 32.3 µM (active).
The same measure, in the same setting: the result for `CC(C)COc1ccc(N)cc1OCC(C)C` reads 55.3 µM (active).
Same read-out and setting: the result for `Cc1c(NC(=O)CN2CC(C)OC(C)C2)c(=O)n(-c2ccccc2)n1C` (stereo not drawn) reads 83.1 µM (active); that for `Cc1ccc(OCCCN2CCCC2)c(C)c1`, 105 µM (active); that for `CCC1(c2ccccc2)NC(=O)N(CC(=O)Nc2ccc(N3CCCC3)cc2C)C1=O` (stereo not drawn), 112 µM (active).
Still for that read-out and setting: with `O=C(C1CCCN(Cc2cccnc2)C1)N1CCCCC1` (stereo not drawn) the figure was 74 µM (active).

A further test addresses Luciferin 4-monooxygenase (Photinus pyralis, UniProt P08659). Description: inhibition of purified Photinus pyralis luciferase – biochemical, luminescence, dose response (AID 1891).
Settings: not given
As to `Cc1ccc2cccc(S(=O)(=O)N3CCCc4ccccc43)c2n1`, the EC50 is 34 µM (active).
The same measure, in the same setting: with `CN(C)S(=O)(=O)c1ccc(Cl)c(NC(=O)COc2ccccc2[N+](=O)[O-])c1` the figure was > 112 µM (not active); with `COc1ncnc2sc(-c3ccccc3)cc12`, 2.4 µM (active).
Same read-out and setting: the result for `NC(CCCCc1ccccc1)c1cccc2ccccc12` (stereo not drawn) reads > 112 µM (not active).

Test system in another test: not listed separately
Put plainly: cells. Format: functional, cell-based.
Settings: not given
With `C=CCc1cccc(/C=N/NC(=O)c2ccc3[nH]cnc3c2)c1O`, the EC50 was 44.5 µM (active).

Test system in the next test: not listed separately
Description: Luminescence Cell-Based Dose Retest to Confirm Inhibitors of Cancer Stem Cells. [Related pubchem assays (depositor defined):AID2717, AID2721]. Format: functional, Homo sapiens. The settings on record: Homo sapiens.
On to `C=CCc1cccc(/C=N/NC(=O)c2ccc3[nH]cnc3c2)c1O`, for which the AC50 is 3.81 µM (active).

Test system in another test: not listed separately
Description: cells.
Settings: not given
Format: functional, cell-based. The source holds these as a separate data set.
For `C=CCc1cccc(/C=N/NC(=O)c2ccc3[nH]cnc3c2)c1O`, the EC50 was 11.8 µM (active).

Another test concerns the target T3, Corticotropin-releasing factor receptor 2/Corticotropin-releasing factor-binding protein (Homo sapiens, UniProt P24387+Q13324).
T3 sequence (Q13324 whole entry): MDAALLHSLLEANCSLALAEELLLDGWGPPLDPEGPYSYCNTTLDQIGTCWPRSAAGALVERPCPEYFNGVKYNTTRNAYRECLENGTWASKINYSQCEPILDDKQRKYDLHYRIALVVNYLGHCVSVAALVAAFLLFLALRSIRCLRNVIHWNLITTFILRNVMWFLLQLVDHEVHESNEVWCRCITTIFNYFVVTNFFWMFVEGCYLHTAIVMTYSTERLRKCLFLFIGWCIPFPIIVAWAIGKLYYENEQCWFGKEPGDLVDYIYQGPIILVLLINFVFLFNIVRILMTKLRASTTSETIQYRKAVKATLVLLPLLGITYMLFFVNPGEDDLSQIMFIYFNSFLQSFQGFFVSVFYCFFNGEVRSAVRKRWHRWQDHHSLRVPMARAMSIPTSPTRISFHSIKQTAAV
T3 sequence (P24387 whole entry): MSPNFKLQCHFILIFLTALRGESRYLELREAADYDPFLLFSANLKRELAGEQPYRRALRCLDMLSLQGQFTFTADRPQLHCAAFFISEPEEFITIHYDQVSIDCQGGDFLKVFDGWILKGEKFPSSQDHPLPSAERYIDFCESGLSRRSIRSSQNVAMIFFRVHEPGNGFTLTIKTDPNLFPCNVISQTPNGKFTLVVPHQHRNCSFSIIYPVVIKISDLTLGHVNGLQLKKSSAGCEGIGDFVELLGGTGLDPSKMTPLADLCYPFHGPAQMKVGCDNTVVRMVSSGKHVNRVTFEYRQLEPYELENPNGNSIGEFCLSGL
Description: activators of CRF receptor 2 with binding protein – uHTS hits, confirmation (AID 602473). Format: functional. The settings on record: read-out: EC50_Mean.
With `Cc1ccc2cccc(S(=O)(=O)N3CCCc4ccccc43)c2n1`, the EC50 was 11.9 µM (active).

Test system in another test: not listed separately
Put plainly: Luminescence Cell-Based Dose Confirmation HTS to Identify Inhibitors of Platelet Dense Granule Release. [Related pubchem assays: 1663 (Primary HTS), 1678 (Summary of Project)]. Format: functional.
Settings: not given
Turning to `Cc1ccc2cccc(S(=O)(=O)N3CCCc4ccccc43)c2n1`, the EC50 was 15.8 µM (active).
Same read-out and setting: with `CN(C)S(=O)(=O)c1ccc(Cl)c(NC(=O)COc2ccccc2[N+](=O)[O-])c1` the figure was > 112 µM (not active); with `COc1ncnc2sc(-c3ccccc3)cc12`, 6.33 µM (active); with `NC(CCCCc1ccccc1)c1cccc2ccccc12` (stereo not drawn), 24.6 µM (active).

The target of another test is T4, Zinc finger protein mex-5 (Caenorhabditis elegans, UniProt Q9XUB2).
T4 sequence (Q9XUB2 whole entry): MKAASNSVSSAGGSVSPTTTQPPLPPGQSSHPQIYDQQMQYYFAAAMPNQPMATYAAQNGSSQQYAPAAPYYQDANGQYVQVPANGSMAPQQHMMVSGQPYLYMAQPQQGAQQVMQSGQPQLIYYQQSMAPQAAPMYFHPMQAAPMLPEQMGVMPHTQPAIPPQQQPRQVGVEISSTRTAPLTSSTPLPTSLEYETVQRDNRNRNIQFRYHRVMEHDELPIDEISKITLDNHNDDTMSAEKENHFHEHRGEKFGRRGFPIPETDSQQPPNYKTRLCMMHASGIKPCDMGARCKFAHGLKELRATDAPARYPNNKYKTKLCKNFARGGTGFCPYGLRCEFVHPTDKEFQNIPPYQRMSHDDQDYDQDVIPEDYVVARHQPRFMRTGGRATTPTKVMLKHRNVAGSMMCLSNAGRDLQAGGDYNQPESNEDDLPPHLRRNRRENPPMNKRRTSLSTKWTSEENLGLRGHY
Put plainly: potency of MEX-5 RNA-binding blockers – biochemical, C. elegans, fluorescence polarization, dose response (AID 1960).
Settings: not given
As to `COc1ccccc1Nc1nc2nonc2nc1N1CCCCC1C` (stereo not drawn), the EC50 is listed as > 300 µM (not active).
Same read-out and setting: the result for `CC(C)(C)OC(=O)NCCCCC1=CC2=CC(=O)C(C)(OC(=O)c3ccco3)C(=O)C2=CO1` (stereo not drawn) reads 30.3 µM (active).

For the origin of these results see ChEMBL document CHEMBL1201862, “PubChem BioAssay data set” (2004).
